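Interpolation was linear, between the two tested concentrations surrounding the appropriate level; five concentrations were tested over 48 hours in 96-well plates. The concentration for 50% growth inhibition is given as GI50.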 Activity calls are given as the source filed them. Cut-off read from the data, not from the text of the source: active = GI50 up to about 1.1 µM and inactive = higher.
Columns and labels:
Experiment in all cases: inhibition of tumour cell growth, NCI panel, 48 h
PC-3 = system: PC-3
OVCAR-8 = system: OVCAR-8
UACC-62 = system: UACC-62
SW-620 = system: SW-620
T47D = system: T47D
NCI/ADR-RES = system: NCI/ADR-RES
HT-29 = system: HT-29
SR = system: SR
MDA-MB-231 = system: MDA-MB-231
Hs-578T = system: Hs-578T
UO-31 = system: UO-31
NCI-H522 = system: NCI-H522
ACHN = system: ACHN
OVCAR-3 = system: OVCAR-3
HOP-92 = system: HOP-92
NCI-H460 = system: NCI-H460
OVCAR-4 = system: OVCAR-4
SNB-75 = system: SNB-75
NCI-H226 = system: NCI-H226
HCT-15 = system: HCT-15
LOX IMVI = system: LOX IMVI
BT-549 = system: BT-549
SNB-19 = system: SNB-19
SF-295 = system: SF-295
MOLT-4 = system: MOLT-4
SK-MEL-2 = system: SK-MEL-2
COLO 205 = system: COLO 205
SN12C = system: SN12C
IGROV-1 = system: IGROV-1
MCF7 = system: MCF7
HOP-62 = system: HOP-62
SK-MEL-5 = system: SK-MEL-5
UACC-257 = system: UACC-257
OVCAR-5 = system: OVCAR-5
Malme-3M = system: Malme-3M
A549 = system: A549
SK-OV-3 = system: SK-OV-3
EKVX = system: EKVX
M14 = system: M14
SF-268 = system: SF-268
DU-145 = system: DU-145
A498 = system: A498
RPMI-8226 = system: RPMI-8226
CCRF-CEM = system: CCRF-CEM
K562 = system: K562
HCC 2998 = system: HCC 2998
MDA-MB-435 = system: MDA-MB-435
RXF 393 = system: RXF 393
SF-539 = system: SF-539
KM12 = system: KM12
TK-10 = system: TK-10
CAKI-1 = system: CAKI-1
HL-60 = system: HL-60
SK-MEL-28 = system: SK-MEL-28
U-251 = system: U-251
NCI-H23 = system: NCI-H23

O=S(=O)(O)Oc1cc2c(c(OS(=O)(=O)O)c1)C[C@H](OS(=O)(=O)O)[C@@H](c1ccc(OS(=O)(=O)O)c(OS(=O)(=O)O)c1)O2
GI50 (PC-3): > 100 µM (inactive)
GI50 (OVCAR-8): > 100 µM (inactive)
GI50 (UACC-62): > 100 µM (inactive)
GI50 (SW-620): > 100 µM (inactive)
GI50 (T47D): > 100 µM (inactive)
GI50 (NCI/ADR-RES): > 100 µM (inactive)
GI50 (HT-29): > 100 µM (inactive)
GI50 (SR): > 100 µM (inactive)
GI50 (MDA-MB-231): 85.7 µM (inactive)
GI50 (Hs-578T): > 100 µM (inactive)
GI50 (UO-31): > 100 µM (inactive)
GI50 (NCI-H522): > 100 µM (inactive)
GI50 (ACHN): > 100 µM (inactive)
GI50 (OVCAR-3): > 100 µM (inactive)
GI50 (HOP-92): > 100 µM (inactive)
GI50 (NCI-H460): > 100 µM (inactive)
GI50 (OVCAR-4): > 100 µM (inactive)
GI50 (SNB-75): 43.6 µM (inactive)
GI50 (NCI-H226): > 100 µM (inactive)
GI50 (HCT-15): > 100 µM
GI50 (LOX IMVI): > 100 µM (inactive)
GI50 (BT-549): > 100 µM (inactive)
GI50 (SNB-19): > 100 µM (inactive)
GI50 (SF-295): > 100 µM (inactive)
GI50 (MOLT-4): > 100 µM (inactive)
GI50 (SK-MEL-2): > 100 µM (inactive)
GI50 (COLO 205): > 100 µM (inactive)
GI50 (SN12C): > 100 µM (inactive)
GI50 (IGROV-1): > 100 µM (inactive)
GI50 (MCF7): > 100 µM (inactive)
GI50 (HOP-62): > 100 µM (inactive)
GI50 (SK-MEL-5): > 100 µM (inactive)
GI50 (UACC-257): > 100 µM (inactive)
GI50 (OVCAR-5): > 100 µM (inactive)
GI50 (Malme-3M): > 100 µM (inactive)
GI50 (A549): > 100 µM (inactive)
GI50 (SK-OV-3): > 100 µM (inactive)
GI50 (EKVX): > 100 µM (inactive)
GI50 (M14): > 100 µM (inactive)
GI50 (SF-268): > 100 µM (inactive)

CC(C)(C)[Si](C)(C)OCC1OC(n2cc(I)c(=O)[nH]c2=O)C(O[Si](C)(C)C(C)(C)C)C1O[Si](C)(C)C(C)(C)C (stereo not drawn)
GI50 (PC-3): 7.24 µM (inactive)
GI50 (OVCAR-8): 12.7 µM (inactive)
GI50 (UACC-62): 16.7 µM (inactive)
GI50 (SW-620): 14.6 µM (inactive)
GI50 (T47D): 17.1 µM (inactive)
GI50 (NCI/ADR-RES): > 100 µM (inactive)
GI50 (HT-29): 14.3 µM (inactive)
GI50 (SR): 28.1 µM (inactive)
GI50 (MDA-MB-231): 15.3 µM (inactive)
GI50 (Hs-578T): 18.6 µM (inactive)
GI50 (UO-31): 23.8 µM (inactive)
GI50 (NCI-H522): 9.68 µM (inactive)
GI50 (ACHN): 15.2 µM (inactive)
GI50 (OVCAR-3): 14.3 µM (inactive)
GI50 (HOP-92): 22.1 µM (inactive)
GI50 (NCI-H460): 15.5 µM (inactive)
GI50 (OVCAR-4): 55.8 µM (inactive)
GI50 (SNB-75): 16.1 µM (inactive)
GI50 (NCI-H226): 25.6 µM (inactive)
GI50 (HCT-15): 29.8 µM
GI50 (LOX IMVI): 12.5 µM (inactive)
GI50 (BT-549): 24 µM (inactive)
GI50 (SNB-19): 19.5 µM (inactive)
GI50 (SF-295): 15.2 µM (inactive)
GI50 (MOLT-4): 10.7 µM (inactive)
GI50 (SK-MEL-2): > 10 µM (inactive)
GI50 (COLO 205): 19.1 µM (inactive)
GI50 (SN12C): 26.9 µM (inactive)
GI50 (IGROV-1): 17.7 µM (inactive)
GI50 (MCF7): 12.9 µM (inactive)
GI50 (HOP-62): 20.1 µM (inactive)
GI50 (SK-MEL-5): 16.6 µM (inactive)
GI50 (UACC-257): 10.5 µM (inactive)
GI50 (OVCAR-5): 24.8 µM (inactive)
GI50 (Malme-3M): 53.3 µM (inactive)
GI50 (A549): 11.4 µM (inactive)
GI50 (SK-OV-3): 32.1 µM (inactive)
GI50 (EKVX): 22 µM (inactive)
GI50 (M14): 15.7 µM (inactive)
GI50 (SF-268): 21.1 µM (inactive)

O=c1c(-c2ccccc2)c(SCCN2CCOCC2)n(-c2ccccc2)c(=S)n1-c1ccccc1
GI50 (PC-3): > 100 µM (inactive)
GI50 (DU-145): > 100 µM (inactive)
GI50 (OVCAR-8): 63 µM (inactive)
GI50 (UACC-62): 89.1 µM (inactive)
GI50 (SW-620): > 100 µM (inactive)
GI50 (NCI/ADR-RES): > 100 µM (inactive)
GI50 (SR): > 100 µM (inactive)
GI50 (MDA-MB-231): 83.9 µM (inactive)
GI50 (Hs-578T): 62.2 µM (inactive)
GI50 (A498): > 100 µM (inactive)
GI50 (NCI-H522): 51.5 µM (inactive)
GI50 (RPMI-8226): > 100 µM (inactive)
GI50 (ACHN): > 100 µM (inactive)
GI50 (OVCAR-3): > 100 µM (inactive)
GI50 (CCRF-CEM): > 100 µM (inactive)
GI50 (HOP-92): 25.2 µM (inactive)
GI50 (NCI-H460): > 100 µM (inactive)
GI50 (K562): > 100 µM (inactive)
GI50 (OVCAR-4): 32.1 µM (inactive)
GI50 (HCC 2998): > 100 µM (inactive)
GI50 (SNB-75): 26.4 µM (inactive)
GI50 (MDA-MB-435): > 100 µM (inactive)
GI50 (NCI-H226): 35.3 µM (inactive)
GI50 (HCT-15): > 100 µM
GI50 (LOX IMVI): > 100 µM (inactive)
GI50 (BT-549): > 100 µM (inactive)
GI50 (RXF 393): 46.9 µM (inactive)
GI50 (SF-295): 83.6 µM (inactive)
GI50 (SF-539): > 100 µM (inactive)
GI50 (KM12): > 100 µM (inactive)
GI50 (MOLT-4): > 100 µM (inactive)
GI50 (SK-MEL-2): > 100 µM (inactive)
GI50 (TK-10): 46.6 µM (inactive)
GI50 (CAKI-1): 52 µM (inactive)
GI50 (COLO 205): > 100 µM (inactive)
GI50 (IGROV-1): > 100 µM (inactive)
GI50 (MCF7): 80.9 µM (inactive)
GI50 (HOP-62): 74 µM (inactive)
GI50 (SK-MEL-5): > 100 µM (inactive)
GI50 (HL-60): > 100 µM (inactive)
GI50 (UACC-257): > 100 µM (inactive)
GI50 (OVCAR-5): > 100 µM (inactive)
GI50 (SK-MEL-28): > 100 µM (inactive)
GI50 (Malme-3M): > 100 µM (inactive)
GI50 (U-251): > 100 µM (inactive)
GI50 (SK-OV-3): > 100 µM (inactive)
GI50 (EKVX): > 100 µM (inactive)
GI50 (NCI-H23): > 100 µM (inactive)
